Columns and labels:
[1] = Dissociation constant, pKa of the compound; type: physicochemical
[2] = Lipophilicity, logD of compound at pH 7; settings: buffer
[3] = Lipophilicity, logP of the compound; settings: octanol/water
[4] = target: T1, Gamma-aminobutyric acid receptor subunit alpha-5 (Homo sapiens, UniProt P31644); test: Binding affinity to GABAa alpha5 (unknown origin) assessed as inhibition constant
T1 sequence (P31644 whole entry): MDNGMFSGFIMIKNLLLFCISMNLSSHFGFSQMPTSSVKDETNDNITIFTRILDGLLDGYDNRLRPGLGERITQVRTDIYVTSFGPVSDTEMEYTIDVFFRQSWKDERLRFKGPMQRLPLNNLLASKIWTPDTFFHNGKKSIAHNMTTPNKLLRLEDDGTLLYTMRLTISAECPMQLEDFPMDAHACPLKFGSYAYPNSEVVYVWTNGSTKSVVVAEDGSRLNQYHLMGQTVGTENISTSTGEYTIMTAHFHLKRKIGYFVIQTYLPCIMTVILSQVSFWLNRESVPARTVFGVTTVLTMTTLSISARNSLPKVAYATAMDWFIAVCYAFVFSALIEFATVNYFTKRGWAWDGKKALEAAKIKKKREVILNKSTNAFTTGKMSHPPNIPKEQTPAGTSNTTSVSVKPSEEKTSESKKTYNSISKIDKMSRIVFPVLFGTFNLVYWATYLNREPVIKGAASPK

[5] = target: Neuronal acetylcholine receptor; alpha6/beta2 (Homo sapiens, UniProt P17787+Q15825); test: Binding affinity to nACh alpha6beta2 receptor (unknown origin) assessed as inhibition constant; type: protein-complex assay
[6] = target: T2, Kappa-type opioid receptor (Homo sapiens, UniProt P41145); test: Binding affinity to kappa opioid receptor (unknown origin) assessed as inhibition constant
Mu-type opioid receptor = Mu-type opioid receptor (Homo sapiens, UniProt P35372)
[7] = target: T2, Kappa-type opioid receptor; test: Binding affinity to kappa opioid receptor (unknown origin)
[8] = Adrenal to liver ratio in rat measured at 60 mins; type: ADME, tissue-based; settings: 1 h
[9] = Lipophilicity, logD of compound at pH 7.4; type: physicochemical; settings: buffer
[10] = Half life in rhesus monkey; type: ADME, Macaca mulatta; settings: in vivo
[11] = Drug distribution in rhesus monkey temporal cortex assessed as dissociation constant; type: ADME, tissue-based, Macaca mulatta
[12] = Drug distribution in rhesus monkey temporal cortex assessed as maximum binding; type: ADME, tissue-based, Macaca mulatta
[13] = Drug distribution in rhesus monkey striatum assessed as maximum binding; type: ADME, tissue-based, Macaca mulatta
[14] = target: T3, Gamma-aminobutyric acid receptor subunit alpha-2 (Homo sapiens, UniProt P47869); test: Binding affinity to GABAa alpha2 (unknown origin) assessed as inhibition constant
T3 sequence (P47869 whole entry): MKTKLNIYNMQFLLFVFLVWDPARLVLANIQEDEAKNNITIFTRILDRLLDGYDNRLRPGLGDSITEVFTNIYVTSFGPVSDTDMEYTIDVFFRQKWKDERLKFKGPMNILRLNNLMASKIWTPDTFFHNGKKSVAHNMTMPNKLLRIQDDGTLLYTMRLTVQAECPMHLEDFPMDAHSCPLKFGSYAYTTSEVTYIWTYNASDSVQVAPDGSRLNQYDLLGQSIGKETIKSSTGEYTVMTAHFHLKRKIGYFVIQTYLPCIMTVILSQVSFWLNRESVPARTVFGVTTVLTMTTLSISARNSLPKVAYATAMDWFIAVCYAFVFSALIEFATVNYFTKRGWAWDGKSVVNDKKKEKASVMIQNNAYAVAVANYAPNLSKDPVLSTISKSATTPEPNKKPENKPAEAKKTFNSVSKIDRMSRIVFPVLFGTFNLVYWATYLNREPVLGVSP

[15] = target: T4, Gamma-aminobutyric acid receptor subunit alpha-3 (Homo sapiens, UniProt P34903); test: Binding affinity to GABAa alpha3 (unknown origin) assessed as inhibition constant
T4 sequence (P34903 whole entry): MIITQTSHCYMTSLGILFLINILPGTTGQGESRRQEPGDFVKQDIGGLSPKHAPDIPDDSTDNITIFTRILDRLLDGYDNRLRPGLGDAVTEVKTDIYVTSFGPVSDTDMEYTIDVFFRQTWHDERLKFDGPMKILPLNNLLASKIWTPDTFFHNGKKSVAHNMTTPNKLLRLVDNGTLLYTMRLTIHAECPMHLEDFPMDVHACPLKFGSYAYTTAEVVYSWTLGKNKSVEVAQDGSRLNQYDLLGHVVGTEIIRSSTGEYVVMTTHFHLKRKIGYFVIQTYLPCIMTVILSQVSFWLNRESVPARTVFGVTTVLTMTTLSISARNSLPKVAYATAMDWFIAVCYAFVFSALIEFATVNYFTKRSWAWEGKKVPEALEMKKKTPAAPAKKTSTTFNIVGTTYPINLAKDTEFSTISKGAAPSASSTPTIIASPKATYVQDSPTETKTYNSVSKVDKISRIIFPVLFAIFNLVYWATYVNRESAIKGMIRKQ

[16] = target: T5, Gamma-aminobutyric acid receptor subunit alpha-1 (Homo sapiens, UniProt P14867); test: Binding affinity to GABAa alpha1 (unknown origin) assessed as inhibition constant
T5 sequence (P14867 whole entry): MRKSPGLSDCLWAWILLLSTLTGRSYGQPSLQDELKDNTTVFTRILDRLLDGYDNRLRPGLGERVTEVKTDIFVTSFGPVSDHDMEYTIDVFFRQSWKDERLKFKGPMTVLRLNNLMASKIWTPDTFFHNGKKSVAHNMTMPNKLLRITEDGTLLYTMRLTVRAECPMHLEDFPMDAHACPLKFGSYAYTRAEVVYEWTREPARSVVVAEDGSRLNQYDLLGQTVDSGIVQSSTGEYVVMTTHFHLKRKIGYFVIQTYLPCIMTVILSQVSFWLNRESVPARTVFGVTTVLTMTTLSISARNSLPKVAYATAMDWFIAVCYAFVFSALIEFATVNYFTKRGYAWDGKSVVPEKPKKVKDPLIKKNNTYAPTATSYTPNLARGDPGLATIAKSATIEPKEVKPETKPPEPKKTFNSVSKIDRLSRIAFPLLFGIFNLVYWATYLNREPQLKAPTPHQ

[17] = Binding affinity to GABA/BZ receptor (unknown origin) assessed as inhibition constant; design: species or system Homo sapiens
[18] = target: Glutamate NMDA receptor; GRIN1/GRIN2A (Homo sapiens, UniProt Q05586+Q12879); test: Binding affinity to GluN1/GluN2A receptor (unknown origin) assessed as inhibition constant; type: protein-complex assay
[19] = Selectivity ratio of Ki for kappa opioid receptor (unknown origin) for Ki for mu opioid receptor (unknown origin)
[20] = Selectivity ratio of Ki for kappa opioid receptor (unknown origin) for Ki for delta opioid receptor (unknown origin)

Neuronal acetylcholine receptor; alpha6/beta2, sequence (P17787 whole entry): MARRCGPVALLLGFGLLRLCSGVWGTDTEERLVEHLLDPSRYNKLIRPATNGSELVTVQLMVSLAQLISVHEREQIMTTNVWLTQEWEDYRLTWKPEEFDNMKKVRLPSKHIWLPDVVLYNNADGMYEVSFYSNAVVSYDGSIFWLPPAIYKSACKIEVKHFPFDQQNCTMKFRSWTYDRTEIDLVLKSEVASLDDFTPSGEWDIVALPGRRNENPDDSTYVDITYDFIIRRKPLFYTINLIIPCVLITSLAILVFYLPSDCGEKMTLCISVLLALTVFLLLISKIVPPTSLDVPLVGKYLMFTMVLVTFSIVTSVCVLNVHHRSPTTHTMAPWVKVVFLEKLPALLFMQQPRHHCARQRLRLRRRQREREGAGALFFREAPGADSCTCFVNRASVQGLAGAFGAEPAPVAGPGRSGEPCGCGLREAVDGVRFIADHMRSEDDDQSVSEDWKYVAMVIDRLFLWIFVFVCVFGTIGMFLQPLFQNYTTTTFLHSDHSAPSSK
Neuronal acetylcholine receptor; alpha6/beta2, sequence (Q15825 whole entry): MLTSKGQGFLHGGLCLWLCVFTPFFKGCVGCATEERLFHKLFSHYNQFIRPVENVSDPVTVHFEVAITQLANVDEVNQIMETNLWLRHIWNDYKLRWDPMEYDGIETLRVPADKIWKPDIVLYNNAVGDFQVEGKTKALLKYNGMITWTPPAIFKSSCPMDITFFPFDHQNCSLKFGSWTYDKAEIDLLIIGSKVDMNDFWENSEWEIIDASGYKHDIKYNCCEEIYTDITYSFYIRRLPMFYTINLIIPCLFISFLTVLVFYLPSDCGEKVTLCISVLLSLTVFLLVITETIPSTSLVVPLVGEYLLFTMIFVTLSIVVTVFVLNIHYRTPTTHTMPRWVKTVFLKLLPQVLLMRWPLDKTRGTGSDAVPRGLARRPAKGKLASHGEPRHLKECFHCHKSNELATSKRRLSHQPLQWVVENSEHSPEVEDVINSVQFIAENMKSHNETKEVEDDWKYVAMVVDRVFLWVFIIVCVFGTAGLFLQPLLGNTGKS
Glutamate NMDA receptor; GRIN1/GRIN2A, sequence (Q12879 whole entry, other chains not shown): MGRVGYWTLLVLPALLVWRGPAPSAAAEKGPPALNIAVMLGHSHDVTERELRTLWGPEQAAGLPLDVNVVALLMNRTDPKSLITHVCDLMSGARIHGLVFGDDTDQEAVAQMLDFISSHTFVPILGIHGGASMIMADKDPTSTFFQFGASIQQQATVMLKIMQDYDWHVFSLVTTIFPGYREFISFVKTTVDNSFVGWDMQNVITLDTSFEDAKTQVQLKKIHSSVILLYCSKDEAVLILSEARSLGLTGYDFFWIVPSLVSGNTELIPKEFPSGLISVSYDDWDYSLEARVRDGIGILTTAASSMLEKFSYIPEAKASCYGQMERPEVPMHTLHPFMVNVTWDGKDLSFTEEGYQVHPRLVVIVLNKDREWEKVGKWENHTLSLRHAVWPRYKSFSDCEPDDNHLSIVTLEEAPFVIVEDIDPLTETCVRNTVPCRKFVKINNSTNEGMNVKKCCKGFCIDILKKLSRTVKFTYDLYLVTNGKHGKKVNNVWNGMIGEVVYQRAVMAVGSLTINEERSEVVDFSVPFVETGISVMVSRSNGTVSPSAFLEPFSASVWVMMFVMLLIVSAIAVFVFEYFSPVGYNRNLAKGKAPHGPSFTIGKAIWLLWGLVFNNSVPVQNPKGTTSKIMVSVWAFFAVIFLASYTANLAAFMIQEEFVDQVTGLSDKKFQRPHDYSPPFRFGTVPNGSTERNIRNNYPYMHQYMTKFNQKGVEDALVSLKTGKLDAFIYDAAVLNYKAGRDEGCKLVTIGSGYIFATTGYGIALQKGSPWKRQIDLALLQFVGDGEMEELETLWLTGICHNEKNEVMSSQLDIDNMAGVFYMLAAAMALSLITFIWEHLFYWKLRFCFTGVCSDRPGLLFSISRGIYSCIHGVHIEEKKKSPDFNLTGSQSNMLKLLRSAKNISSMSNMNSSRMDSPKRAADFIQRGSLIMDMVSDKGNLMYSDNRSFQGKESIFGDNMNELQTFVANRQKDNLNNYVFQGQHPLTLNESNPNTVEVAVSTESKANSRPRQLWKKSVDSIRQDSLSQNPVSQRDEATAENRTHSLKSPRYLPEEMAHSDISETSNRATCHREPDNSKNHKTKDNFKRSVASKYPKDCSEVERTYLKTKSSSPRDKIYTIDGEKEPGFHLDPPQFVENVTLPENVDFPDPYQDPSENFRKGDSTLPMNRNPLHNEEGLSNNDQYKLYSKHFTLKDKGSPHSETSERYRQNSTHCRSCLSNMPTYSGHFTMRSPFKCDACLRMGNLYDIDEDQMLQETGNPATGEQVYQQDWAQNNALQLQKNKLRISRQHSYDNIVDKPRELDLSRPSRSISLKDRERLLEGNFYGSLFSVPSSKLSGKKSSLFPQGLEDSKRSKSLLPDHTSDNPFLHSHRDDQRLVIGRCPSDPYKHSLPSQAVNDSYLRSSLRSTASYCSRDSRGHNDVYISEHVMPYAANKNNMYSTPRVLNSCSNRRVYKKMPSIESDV
T2 sequence (P41145 whole entry): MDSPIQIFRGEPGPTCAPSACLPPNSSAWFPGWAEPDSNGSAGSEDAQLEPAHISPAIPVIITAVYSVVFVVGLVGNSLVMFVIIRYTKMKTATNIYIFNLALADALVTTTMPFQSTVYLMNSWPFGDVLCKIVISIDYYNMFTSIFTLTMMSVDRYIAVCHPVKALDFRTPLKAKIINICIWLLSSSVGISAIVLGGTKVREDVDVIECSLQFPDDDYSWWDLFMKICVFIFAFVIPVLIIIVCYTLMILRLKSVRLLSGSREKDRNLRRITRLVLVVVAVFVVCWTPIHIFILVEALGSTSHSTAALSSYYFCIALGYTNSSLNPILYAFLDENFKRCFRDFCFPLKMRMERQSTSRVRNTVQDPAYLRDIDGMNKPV
Mu-type opioid receptor, sequence (P35372 whole entry): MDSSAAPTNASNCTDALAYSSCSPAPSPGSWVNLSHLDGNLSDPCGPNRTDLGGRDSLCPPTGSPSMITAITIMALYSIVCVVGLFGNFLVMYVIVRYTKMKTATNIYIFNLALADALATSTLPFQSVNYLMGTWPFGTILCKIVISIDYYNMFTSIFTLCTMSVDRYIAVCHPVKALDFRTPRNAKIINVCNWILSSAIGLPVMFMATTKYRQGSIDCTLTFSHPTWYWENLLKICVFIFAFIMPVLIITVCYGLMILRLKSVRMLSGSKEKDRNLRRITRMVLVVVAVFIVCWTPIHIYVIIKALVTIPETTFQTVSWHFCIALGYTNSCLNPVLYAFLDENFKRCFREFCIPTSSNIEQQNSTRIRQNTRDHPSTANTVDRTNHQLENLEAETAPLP

Structure (SMILES) | pKa [1] | logD [2] | logP [3] | also measured
CC(C)C[C@H](N)[11C](=O)O | 10.2 | -1.7 | -0.29 | 
CC(OC(F)F)C(F)(F)F (centres undefined) |  | 2.12 | 2.47 | 
CN([11CH3])Cc1ccccc1Sc1ccc(C#N)cc1N | 9.43 | 0.89 | 3.31 | 
CCOC(=O)c1ncn2c1CN([11CH3])C(=O)c1cc(N=[N+]=[N-])ccc1-2 | 8.45 |  |  | Ki [4]: ~0.5 nM
Cc1cn([C@H]2C[C@H]([18F])[C@@H](CO)O2)c(=O)[nH]c1=O [ALOVUDINE F-18] | 13.7 | -0.2 | -0.41 | 
CN1C2CCCC1C(c1cncc(-c3cccnc3[18F])c1)C2 (centres undefined) | 9.18 |  | 2.47 | Ki [5]: 0.06 nM
[11CH3]OC(=O)c1cncn1Cc1ccccc1 | 4.08 | 2.19 | 1.18 | 
CN1C2CCCC1C(c1cncc(-c3cccc([18F])n3)c1)C2 (centres undefined) | 9.24 |  | 2.89 | Ki [5]: 0.95 nM
CCN(CC)C[C@@H]1CN(C(=O)COC)CCN1C(=O)Cc1ccc(C)c(C)c1 |  |  |  | Ki [6]: 0.28 nM
[11CH3]n1c2c(c3ccccc31)C[C@@]1(O)[C@H]3Cc4ccc(O)c5c4[C@@]1(CCN3CC1CC1)[C@H]2O5 | 14.2 |  | 3.31 | 
CCOC(=O)c1ncn2c1CN(C)C(=O)c1cc([18F])ccc1-2 | 0.86 |  | 1.11 | 
COc1cnc(OCc2cn(-c3ccc([18F])c(C)c3)nn2)nc1 | 0.73 | 1.55 | 2.76 | 
N[11C](=O)c1ccc(Oc2ccc(CN3CCC[C@H]3c3cccnc3)cc2)c(Cl)c1 | 8.45 | 2.71 | 3.67 | Ki [6]: 0.72 nM; Ki (Mu-type opioid receptor): 25.8 nM; Kd [7]: 0.028 nM
CCN(CC)C[C@@H]1CN(C(=O)CO[11CH3])CCN1C(=O)Cc1ccc(C)c(C)c1 | 8.6 |  | 1.67 | Ki [6]: 0.28 nM
[11CH3]C(=O)c1ccc2c(c1)CCN(CCCCc1ccccc1)CC2O (centres undefined) | 8.78 | 2.94 | 4.14 | 
[18F]c1ncccc1OC[C@H]1CCN1 | 8.95 |  |  | 
C[C@H](c1ccccc1)n1cncc1C(=O)OCC[18F] | 3.83 | 2.99 | 1.69 | Ratio [8]: 14.48
FC(F)([18F])C(Cl)Br (centres undefined) |  | 2.33 | 2.28 | 
C[C@@H](C[11CH3])CCc1cnc(Cl)c(/C=C/c2ccncc2)c1 |  |  | 4.94 | Ki [5]: 0.077 nM
O=S1(=O)c2cc(N3CCN4CCC3CC4)ccc2-c2cccc([18F])c21 | 8.68 | 1.72 | 2.71 | 
N#Cc1cc([18F])cc(C#Cc2ccccn2)c1 | 1.89 | 3.38 | 3.25 | 
CN1CC=C[C@H]1COc1cccnc1[18F] | 8.09 | 0.3 | 1.21 | Ki [5]: 0.5 nM

Structure (SMILES) | pKa [1] | logD [2] | logP [3] | also measured
CCN(CCF)C[C@@H]1CN(C(=O)CO[11CH3])CCN1C(=O)Cc1ccc(C)c(C)c1 | 7.51 |  | 1.53 | 
Oc1ccc2c(c1)CCN(CCCCc1ccccc1[18F])C[C@@H]2O | 8.68 | 2.07 | 4.03 | logD [9]: 2.2
[18F]c1ccc2cnn(N=C3NCCN3)c2c1 | 7.94 | 0.09 | 1.11 | 
CN([11CH3])[C@]1(c2ccccc2Cl)CCCCC1=O | 6.92 | 2.93 | 2.84 | half-life [10]: > 15 min; Kd [11]: 7000 nM; Kd [12]: 4000 nM; Kd [13]: 14000 nM
[18F]CCCc1cncc(OC[C@@H]2C=CCN2)c1 | 8.21 | 0.71 | 1.42 | Ki [5]: 0.36 nM
FC(F)OC(F)C(F)(F)F (centres undefined) |  | 1.88 | 2.16 | 
CCOC(=O)c1ncn2c1CN(C)C(=O)c1cc(N=[N+]=[N-])ccc1-2 [Ro-154513] |  |  |  | Ki [14]: 7 nM; Ki [15]: 7 nM; Ki [16]: 7 nM; Ki [17]: 0.7 nM
C[C@H](c1ccc(Cl)cc1)n1cncc1C(=O)OCC[18F] | 3.76 | 3.76 | 2.25 | 
[11CH3]Oc1cccc(-c2c(O)c3c(I)cc(Cl)cc3[nH]c2=O)c1 | 8.83 | 1.91 | 3.81 | Ki [18]: 10300 nM
N[C@H](C[C@H]1CC(C(=O)O)=NN1c1ccc(CCCF)cc1)C(=O)O |  |  |  | Ki [18]: 52 nM
CC(=O)N(Cc1ccccc1OCC[18F])c1ccccc1Oc1ccccc1 |  |  | 4.51 | 
CN(C)c1cccc2c(S(=O)(=O)N/N=C/c3ccc([18F])cc3)cccc12 |  | 3.92 | 4.94 | 
C[11CH2]OC(=O)c1cncn1[C@H](C)c1ccccc1 | 4.23 | 3.05 | 1.83 | 
CCN(CCF)C[C@@H]1CN(C(=O)COC)CCN1C(=O)Cc1ccc(C)c(C)c1 |  |  |  | Ratio Ki [19]: 17; Ki [6]: 0.43 nM; Ratio Ki [20]: 323
[11CH3]OCc1scnc1N1CCN(C[C@H]2COc3ccccc3O2)CC1 | 7.21 | 2.02 | 2.65 | 
CCOC(=O)c1ncn2c1CN([11CH3])C(=O)c1cc(F)ccc1-2 | 0.86 |  | 1.11 | 
FCOC(C(F)(F)F)C(F)(F)[18F] (centres undefined) |  | 2.5 | 2.24 | 
[18F]c1ccc(C2CC3CCCC2N3)cn1 (single isomer, unassigned; (-)) | 9.28 | -0.76 | 1.75 | 
NC(=O)c1ccc(Oc2ccc(CN3CCC[C@H]3c3cccnc3)cc2)c([18F])c1 | 8.45 | 2.07 | 3.27 | 
[18F]CCCc1cncc(OC[C@@H]2CCN2)c1 | 9.09 | -1.44 | 0.86 | Ki [5]: 0.67 nM
CCCc1cc(Cl)cc2[nH]c(=O)c(-c3cccc(O[11CH3])c3)c(O)c12 | 9.06 |  | 3.78 | Ki [18]: 7200 nM

Reference: ChEMBL document CHEMBL5338767, “A Molecular Toolbox of Positron Emission Tomography Tracers for General Anesthesia Mechanism Research” (J Med Chem, 2023)
